The text below walks through data of article PMC12908707, “Pharmacodynamic effects and plasma pharmacokinetics of N, N-dimethyltryptamine after intranasal versus subcutaneous administration in male rats” (Psychopharmacology, 2025).

Where two headings read alike, the source gives them in different places.

Data set [1] in a line: Plasma pharmacokinetics of DMT and DMT N-oxide after IN or SC DMT (LC-QQQ-MS, non-compartmental analysis). Conditions: for AUC / Tmax / Cmax / half-life: male, Sprague-Dawley, rat, plasma DMT; for Cmax / half-life: plasma. It counts as in vivo, male Sprague-Dawley rats. The procedure:
For the IN DMT experiments, blood samples (300 µL) were withdrawn via IV catheters immediately before (time zero) and at 5, 10, 20, 40, and 80 min after injection. For the SC DMT experiments, blood samples were withdrawn immediately before (time zero) and at 10, 20, 40, 80, and 160 min after injection. Samples were collected into 1 mL tuberculin syringes and transferred to 1.5 mL plastic tubes containing 5 µL of 1000 IU/mL heparin (Thomas Scientific) as an anticoagulant and 5 µL of 250 mM sodium metabisulfite as a preservative. Blood was centrifuged at 1000 g for 10 min at 4 °C. Plasma was decanted into cryovials and stored at − 80 °C until analysis. To maintain volume and osmotic homeostasis, rats received an equal volume of saline solution via the IV catheter after each blood withdrawal.
Samples were extracted using a basic solid phase extraction (SPE) procedure. Spiking solutions (final concentrations 0.1, 1.0 and 10 ng/µL) contained all analytes and were prepared by serial dilution in methanol from stock solutions. Calibration curves contained eight non-zero calibrators from 5 to 1000 ng/mL. Quality controls were assessed at 15, 60, 150, and 800 ng/mL. DMT-D4 (25 µL, 1.0 ng/µL) was utilized as the internal standard. Authentic rat plasma samples were stored at −80 °C prior to analysis.
Drug-free rat plasma was fortified with appropriate spiking solutions and aliquoted (150 µL) for extraction. Authentic rat plasma was assayed at 150 µL. Internal standard was added at a final concentration of 125 ng/mL. Samples were diluted with 1 mL phosphate buffer (0.1 M, pH 6) followed by centrifugation for 5 min at 4200 rpm, then extracted using Chromabond® SPE cartridges (200 mg, 3 mL)(Macherey-Nagel, Allentown, PA, USA). The columns were conditioned using methanol (2 mL), deionized water (2 mL), and phosphate buffer (0.1 M, pH 6, 2 mL). The buffered sample was added to the columns and impurities were removed using deionized water (1 mL), acetic acid (0.1 M, 1 mL), and methanol (1 mL). Analytes were eluted using 3 mL of dichloromethane: isopropanol: ammonia (78:20:2, v: v:v). The organic solvent was evaporated to dryness under nitrogen at 33 °C. Samples were reconstituted in 100 µL of initial mobile phase conditions (90 A:10B).

Another data set deals with male and female rats. Details: method as in Tylš et al. [2016]. Conditions: SC, ref Tylš et al. [2016]; cited from earlier work.
Data set [2] relates to rats. Set-up: method as in Baumann and Rothman [1996]; Elmore et al. [2018]. Conditions: SC, dose-related increases, ref Baumann and Rothman [1996], Elmore et al. [2018]; cited from earlier work.
The subject of data set [3] is male Sprague-Dawley rats. Briefly: Behavioral scoring: motor activity (summed motor scores). It counts as in vivo. The following applies: IN or SC, 1, 3, 10 mg/kg; Dunnett's post hoc test.
The test system of data set [4] is male Sprague-Dawley rats. The data set can be described thus: Behavioral scoring: flat body posture (element of the 5-HT syndrome). It counts as in vivo.
For data set [5], the system named is male Sprague-Dawley rats. Briefly: Behavioral scoring: wet dog shakes (proxy for 5-HT2A activation). It counts as in vivo. Conditions: SC, 1 and 3 mg/kg.
Data set [6] deals with male Sprague-Dawley rats. Briefly: Core body temperature by SC temperature transponder.
Data set [7] relates to rats. Set-up: method as in Lucki et al. ([1984]). The following applies: intraperitoneal (IP), ref Lucki et al. ([1984]); cited from earlier work.
Where [8] appears, read: inhaled or intranasal, 1 mg/kg IN, mean ± SEM, n = 5 rats.
[9] abbreviates: inhaled or intranasal, 3 mg/kg IN, mean ± SEM, n = 5 rats.
[10] abbreviates: inhaled or intranasal, 10 mg/kg IN, mean ± SEM, n = 5 rats.
Where [11] appears, read: 1 mg/kg SC, mean ± SEM, n = 5 rats.
[12] abbreviates: 3 mg/kg SC, mean ± SEM, n = 5 rats.
Where [13] appears, read: 10 mg/kg SC, mean ± SEM, n = 5 rats.

As for `C[N+](C)([O-])CCc1c[nH]c2ccccc12` [DMT N-oxide], the “plasma concentrations of DMT N-oxide by 80 min post-treatment” value in data set [1] (after all doses of IN DMT) is listed as “either undetectable or very low”.

As for `CN(C)CCc1c[nH]c2cccc(O)c12` [psilocin, 4-hydroxy-N, N-dimethyltryptamine], in the data set with male and female rats, the flat body posture result is “causes flat body posture”.

With `COc1cc(CC(C)N)c(OC)cc1I` (centres unmarked) [DOI, 1-(4-iodo-2,5-dimethoxyphenyl)propan-2-amine], the wet dog shakes entry with rats [2] was “more than ten episodes per hour”.

Broadly, the AUC is concentration integrated over time. A lower AUC goes with less exposure. One may read the Tmax as the time at which the peak concentration occurs. Take `CN(C)CCc1c[nH]c2ccccc12` [DMT, N,N-dimethyltryptamine]: the “summed motor scores vs vehicle controls” value in the data set on male Sprague-Dawley rats [3] is “no significant differences”. The “flat body posture vs vehicle” value in the data set on male Sprague-Dawley rats [4] (IN, 3 and 10 mg/kg) is “increased above vehicle”; in the data set with male Sprague-Dawley rats [4] (SC, only at 10 mg/kg) it was “increased”. Moreover, the “predicted AUC” value in data set [1] (10 mg/kg IN, ~3.3-times the measured AUC at 3 mg/kg) was 2950 ng·min/mL. Also, in data set [1] (after all doses of IN DMT), the “plasma concentrations of DMT by 80 min post-treatment” value was “below the LOD, or nearly so”. Moreover, the AUC in data set [1] (setting [8]) is 6.08 ng·h/mL; in data set [1] (setting [9]), 14.9 ng·h/mL; in data set [1] (setting [10]) it was 93.8 ng·h/mL; in data set [1] (setting [11]) it was 16.4 ng·h/mL; in data set [1] (setting [12]) it was 47.7 ng·h/mL; in data set [1] (setting [13]), 158 ng·h/mL. For the same molecule, the time of peak concentration (Tmax) in data set [1] (setting [8]) is 5 min; in data set [1] (setting [9]), 6 min; in data set [1] (setting [10]), 7 min; in data set [1] (setting [11]) it was 14 min; in data set [1] (setting [12]), 22 min; in data set [1] (setting [13]) it was 64 min. For the same molecule, the Cmax in data set [1] (inhaled or intranasal, 1 mg/kg, 1 mg/kg IN, mean ± SEM, n = 5 rats, read-out: Cmax) was 30.1 ± 7.6 ng/mL; in data set [1] (inhaled or intranasal, 3 mg/kg, 3 mg/kg IN, mean ± SEM, n = 5 rats, read-out: Cmax), 55.6 ± 15.4 ng/mL; in data set [1] (inhaled or intranasal, 10 mg/kg, 10 mg/kg IN, mean ± SEM, n = 5 rats, read-out: Cmax) it was 268 ± 50.7 ng/mL; in data set [1] (other: IN (intranasal, infused into the nares), 3 mg/kg, low IN doses (1 and 3 mg/kg), read-out: maximal DMT concentrations (Cmax) after low IN doses) it was 30.2 to 55.6 ng/mL; in data set [1] (sc, 1 mg/kg, 1 mg/kg SC, mean ± SEM, n = 5 rats, read-out: Cmax), 19.6 ± 2.2 ng/mL; in data set [1] (sc, 3 mg/kg, 3 mg/kg SC, mean ± SEM, n = 5 rats, read-out: Cmax) it was 35.8 ± 2.4 ng/mL. For the same molecule, the Cmax in data set [1] (sc, 10 mg/kg, 10 mg/kg SC, mean ± SEM, n = 5 rats, read-out: Cmax) was determined as 81.6 ± 11.1 ng/mL. Besides, the half-life in data set [1] (inhaled or intranasal, 1 mg/kg, 1 mg/kg IN, mean ± SEM, n = 5 rats, read-out: t1/2) was 12.9 ± 2.8 min; in data set [1] (inhaled or intranasal, 3 mg/kg, 3 mg/kg IN, mean ± SEM, n = 5 rats, read-out: t1/2) it was 14.3 ± 1.9 min; in data set [1] (inhaled or intranasal, 10 mg/kg, 10 mg/kg IN, mean ± SEM, n = 5 rats, read-out: t1/2), 11.9 ± 1.4 min; in data set [1] (other: IN (intranasal, infused into the nares), 10 mg/kg, IN route, across 1, 3 and 10 mg/kg, read-out: t1/2 range) it was 11.9 to 14.3 min; in data set [1] (sc, 1 mg/kg, 1 mg/kg SC, mean ± SEM, n = 5 rats, read-out: t1/2) it was 45.5 ± 9.5 min; in data set [1] (sc, 3 mg/kg, 3 mg/kg SC, mean ± SEM, n = 5 rats, read-out: t1/2) it was 91.7 ± 26.4 min. Also, the half-life in data set [1] (sc, 10 mg/kg, 10 mg/kg SC, mean ± SEM, n = 5 rats, read-out: t1/2) was 123 ± 36.4 min; in data set [1] (sc, 10 mg/kg, SC route, across 1, 3 and 10 mg/kg, read-out: t1/2 range) it was 45.5 to 123 min. Moreover, the “wet dog shakes vs vehicle” value in the data set on male Sprague-Dawley rats [5] is “increased compared to vehicle”. Further, the “body temperature nadir (hypothermic effect)” value with male Sprague-Dawley rats [6] (10 mg/kg IN, sustained throughout the sampling period (80 min)) came out at 34.4 °C; in the data set on male Sprague-Dawley rats [6] (10 mg/kg SC, subsided by end of sampling period (160 min)), 34.2 °C. Besides, in the data set on male Sprague-Dawley rats [6] (IN, all doses, by 20 min post-treatment), the “body temperature vs saline controls” value is on record as “significantly reduced temperature”.

Turning to `COc1cc(CCN)c(OC)cc1I` [2 C-I, 2-(4-iodo-2,5-dimethoxyphenyl)ethanamine], the wet dog shakes result in the data set with rats [2] is reported as “more than ten episodes per hour”.

Consider `COc1ccc2[nH]cc(CCN(C)C)c2c1` [5-MeO-DMT, 5-methoxy-N, N-dimethyltryptamine], for which the 5-HT behavioral syndrome entry in the data set on rats [7] was “produces the 5-HT behavioral syndrome”.
